# Laboratory results: PMC11946908, “Plasmodium blood stage development requires the chromatin remodeller Snf2L” (Nature, 2025)
# Key:
# Assay type in all cases: biochemical
# PfSnf2L [1] = biological target: T1, PfSnf2L (Plasmodium falciparum, UniProt Q8IIW0); assay: ADP biosensor (TMR-ParM) ATPase assay, single dose response; settings: 0.4 µM enzyme, 125 µM ATP, plasmid DNA, 5 µM H4 peptide, 1.5 mM MgCl2, pH 8.6, 28 °C; allosteric
# T1 construct: gene PF3D7_1104200; amino acids 250-1426, C-terminal 10xHis tag, baculovirus, Sf21 insect cells
# T1 sequence (Q8IIW0 250-1426): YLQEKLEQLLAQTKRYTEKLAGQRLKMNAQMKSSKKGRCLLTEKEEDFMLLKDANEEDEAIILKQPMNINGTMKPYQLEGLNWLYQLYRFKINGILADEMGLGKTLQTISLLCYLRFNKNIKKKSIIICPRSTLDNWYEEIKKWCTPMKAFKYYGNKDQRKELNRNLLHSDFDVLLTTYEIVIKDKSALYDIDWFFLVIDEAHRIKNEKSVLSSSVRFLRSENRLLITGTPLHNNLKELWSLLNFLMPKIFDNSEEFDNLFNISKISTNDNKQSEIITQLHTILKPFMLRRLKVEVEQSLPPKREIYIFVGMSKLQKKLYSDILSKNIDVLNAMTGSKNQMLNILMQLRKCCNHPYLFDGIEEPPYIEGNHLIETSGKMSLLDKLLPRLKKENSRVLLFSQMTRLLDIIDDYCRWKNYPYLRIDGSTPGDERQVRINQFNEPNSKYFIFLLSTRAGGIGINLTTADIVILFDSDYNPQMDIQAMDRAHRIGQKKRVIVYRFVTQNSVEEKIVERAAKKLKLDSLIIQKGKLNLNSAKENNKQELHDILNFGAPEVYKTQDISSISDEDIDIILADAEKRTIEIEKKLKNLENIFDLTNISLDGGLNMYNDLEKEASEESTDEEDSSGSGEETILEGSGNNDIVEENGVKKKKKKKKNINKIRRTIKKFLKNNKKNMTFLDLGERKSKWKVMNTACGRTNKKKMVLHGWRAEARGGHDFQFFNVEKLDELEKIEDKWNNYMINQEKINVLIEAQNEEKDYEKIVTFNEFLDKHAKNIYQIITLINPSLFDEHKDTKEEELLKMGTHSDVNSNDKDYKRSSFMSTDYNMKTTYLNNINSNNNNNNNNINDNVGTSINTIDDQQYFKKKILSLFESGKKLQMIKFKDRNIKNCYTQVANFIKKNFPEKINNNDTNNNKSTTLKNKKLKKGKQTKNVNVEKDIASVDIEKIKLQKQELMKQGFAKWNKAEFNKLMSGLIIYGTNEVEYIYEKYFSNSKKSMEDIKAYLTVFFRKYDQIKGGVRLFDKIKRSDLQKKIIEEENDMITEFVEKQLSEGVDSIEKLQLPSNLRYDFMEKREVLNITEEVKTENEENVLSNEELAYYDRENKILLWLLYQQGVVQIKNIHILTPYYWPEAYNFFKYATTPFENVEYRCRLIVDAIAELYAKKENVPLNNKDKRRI
# HsSNF2L = biological target: T2, HsSNF2L (Homo sapiens, UniProt P28370); assay: […]-gamma-ATP hydrolysis, thin-layer chromatography; settings: 500 µM ATP, 1.5 mM MgCl2, pH 7.6, 30 °C, with or without mononucleosomes
# T2 construct: gene SMARCA1; 6xHis tag, baculovirus, Sf21 insect cells
# PfSnf2L [2] = biological target: T1, PfSnf2L; assay: as above; settings: 500 µM ATP, 1.5 mM MgCl2, pH 7.6, 30 °C, with or without mononucleosomes
# T2 sequence (P28370 whole entry): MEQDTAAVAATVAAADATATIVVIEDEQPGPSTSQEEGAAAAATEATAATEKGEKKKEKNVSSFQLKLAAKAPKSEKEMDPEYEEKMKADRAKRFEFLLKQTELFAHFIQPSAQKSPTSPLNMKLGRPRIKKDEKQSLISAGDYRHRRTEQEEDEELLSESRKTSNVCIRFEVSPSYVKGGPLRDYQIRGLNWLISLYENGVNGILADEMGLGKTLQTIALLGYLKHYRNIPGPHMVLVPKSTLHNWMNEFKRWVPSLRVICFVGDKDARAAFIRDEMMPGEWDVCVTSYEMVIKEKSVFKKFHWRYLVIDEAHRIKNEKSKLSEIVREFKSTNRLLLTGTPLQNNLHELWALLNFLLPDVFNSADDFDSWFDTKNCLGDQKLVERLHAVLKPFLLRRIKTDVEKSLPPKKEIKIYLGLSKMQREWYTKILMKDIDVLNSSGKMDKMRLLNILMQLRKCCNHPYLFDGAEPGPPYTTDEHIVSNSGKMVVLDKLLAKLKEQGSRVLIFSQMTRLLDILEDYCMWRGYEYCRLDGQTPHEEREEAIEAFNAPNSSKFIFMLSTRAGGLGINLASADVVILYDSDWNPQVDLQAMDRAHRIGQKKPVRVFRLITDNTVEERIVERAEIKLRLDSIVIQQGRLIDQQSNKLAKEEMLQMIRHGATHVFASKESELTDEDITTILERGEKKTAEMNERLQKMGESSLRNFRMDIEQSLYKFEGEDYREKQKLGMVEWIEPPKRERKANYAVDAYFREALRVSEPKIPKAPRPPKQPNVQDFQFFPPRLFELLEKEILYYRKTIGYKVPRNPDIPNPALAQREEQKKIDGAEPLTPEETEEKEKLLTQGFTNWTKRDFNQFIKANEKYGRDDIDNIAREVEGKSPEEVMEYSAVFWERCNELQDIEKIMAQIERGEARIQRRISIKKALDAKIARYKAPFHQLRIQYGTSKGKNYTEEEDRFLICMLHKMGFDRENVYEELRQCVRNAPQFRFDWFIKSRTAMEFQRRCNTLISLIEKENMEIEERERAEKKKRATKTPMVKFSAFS
Compound,"ADP biosensor (TMR-ParM) ATPase assay, single dose response (PfSnf2L [1])","32P-gamma-ATP hydrolysis, thin-layer chromatography (HsSNF2L)","32P-gamma-ATP hydrolysis, thin-layer chromatography (PfSnf2L [2])"
CCCCCCCCCCCCCCCC[n+]1ccn(Cc2ccccc2)c1C [NH125],ATP hydrolysis kinetic of PfSnf2L in presence of NH125 in varying concentrations,,
Nc1ncnc2c1ncn2[C@@H]1O[C@H](COP(=O)(O)OP(=O)(O)OP(=O)(O)O)[C@@H](O)[C@H]1O [ATP],,The non-stimulated or nucleosome-stimulated ATP hydrolysis rate of PfSnf2L/HsSNF2L,The non-stimulated or nucleosome-stimulated ATP hydrolysis rate of PfSnf2L/HsSNF2L
